Consider 25 molecules from patent US20250051338A1, “TYK2 DEGRADERS AND USES THEREOF” (Kymera Therapeutics, Inc., priority 2021, published 2025).

Molecules are shown by their SMILES.

What all share (assay type): cell-based
For assay [1], the target named is T1, TYK2 (Homo sapiens, UniProt P29597). The experiment in a line: TYK2 degradation MSD assay in OCI-LY10 cells. Also noted: endogenous in cells; host or cells: EBV-B cells. Particulars: 4 to 24 hours incubation, read-out: TYK2 MSD DC50 rating in OCI-LY10. As for the experimental part: (§1) Example 3. TYK2 Degradation MSD Assay in EBV-B, OCI-LY10, and Human PBMC Cells
T1 sequence (P29597 whole entry): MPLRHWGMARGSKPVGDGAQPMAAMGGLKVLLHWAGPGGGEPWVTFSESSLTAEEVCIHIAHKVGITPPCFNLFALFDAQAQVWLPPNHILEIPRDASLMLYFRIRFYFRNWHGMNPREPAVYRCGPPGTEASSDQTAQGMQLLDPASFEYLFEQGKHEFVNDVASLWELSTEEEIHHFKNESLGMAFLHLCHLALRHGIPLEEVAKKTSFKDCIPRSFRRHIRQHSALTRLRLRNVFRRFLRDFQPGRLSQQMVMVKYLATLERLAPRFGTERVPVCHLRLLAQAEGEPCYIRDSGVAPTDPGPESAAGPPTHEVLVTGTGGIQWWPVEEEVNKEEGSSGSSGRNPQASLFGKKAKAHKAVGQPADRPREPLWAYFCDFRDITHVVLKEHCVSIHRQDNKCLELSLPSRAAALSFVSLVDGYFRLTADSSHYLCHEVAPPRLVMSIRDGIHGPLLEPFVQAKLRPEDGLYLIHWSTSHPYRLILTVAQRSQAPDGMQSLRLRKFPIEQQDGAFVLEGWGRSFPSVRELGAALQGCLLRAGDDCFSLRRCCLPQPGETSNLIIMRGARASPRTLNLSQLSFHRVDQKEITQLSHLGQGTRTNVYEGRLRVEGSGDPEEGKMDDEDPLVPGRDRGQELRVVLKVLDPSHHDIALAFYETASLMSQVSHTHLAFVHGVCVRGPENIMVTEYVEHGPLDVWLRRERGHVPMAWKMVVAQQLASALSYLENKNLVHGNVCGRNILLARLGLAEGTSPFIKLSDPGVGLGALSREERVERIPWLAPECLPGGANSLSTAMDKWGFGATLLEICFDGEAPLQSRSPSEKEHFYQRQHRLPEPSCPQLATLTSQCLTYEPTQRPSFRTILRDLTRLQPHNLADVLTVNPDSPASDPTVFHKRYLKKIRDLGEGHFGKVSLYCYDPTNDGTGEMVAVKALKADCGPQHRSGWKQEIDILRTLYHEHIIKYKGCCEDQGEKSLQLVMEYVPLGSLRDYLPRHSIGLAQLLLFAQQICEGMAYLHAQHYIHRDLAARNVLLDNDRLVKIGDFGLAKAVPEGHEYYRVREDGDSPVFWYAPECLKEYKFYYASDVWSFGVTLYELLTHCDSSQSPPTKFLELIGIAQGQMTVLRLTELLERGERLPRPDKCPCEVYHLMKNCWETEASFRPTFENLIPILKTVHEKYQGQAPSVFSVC
(§2) Degradation of TYK2 in cells was quantitatively measured using Meso Scale Discovery (MSD) technology. EBV-B, OCI-LY10 or human PBMC cells were seeded in 96-well plates with a density of 0.4 million cells per well in 100 μl fresh media. Compounds were then added to the assay plates with a final top concentration of 1 to 10 μM in a 1:3 dilution series with total of 9 doses. The assay plates were then incubated for 4 to 24 hours at 37° C. under 5% CO2. The assay plates were then centrifuged for 5 minutes, and the cell pellets were treated with 100 μl/well RIPA lysis buffer (Boston Bioproducts, BP-115D) with protease and phosphatase inhibitors (Roche, 05892791001 and 04906837001). To prepare MSD assay plates (MSD, L15XA), the plates were coated with the capture antibody (Santa Cruz Biotechnology, SC-5271) in PBS, at 40 μl/well. The plates were then incubated overnight at 4° C., washed 3 times with 150 μl/well TBST buffer (Cell Signaling Technology, 9997S) and blocked with 150 μl/well blocking buffer (MSD, R93BA-4). Cell lysates were then added to MSD assay plates and the plates were incubated at room temperature for 1 hour. The plates were then washed 3 times with 150 μl/well TBST buffer and 25 μl/well primary detection antibody (Cell Signaling Technology, #9312). The assay plates were then incubated at room temperature for 1 hour, washed 3 times with 150 μl/well TBST buffer, and 25 μl/well secondary detection antibody, SULFO-TAG anti-rabbit antibody (MSD, R32AB-1) were added. The assay plates were then incubated at room temperature for 1 hour, washed 3 times with 150 μl/well TBST buffer, and 150 μl/well MSD reading buffer (MSD, R92TC-2) were added. The plates were then analyzed by an MSD reader. The data was analyzed by GraphPad Prism and the dose dependent TYK2 degradation was fit using the four-parameter inhibitor vs. response nonlinear regression. The DC50 data were measured and categorized into different levels in Table H. The compound with DC50 less than or equal to 1 nM is marked as A, with DC50 more than 1 nM and less than or equal to 10 nM is marked as B, with DC50 more than 10 nM and less than or equal to 100 nM is marked as C, and with DC50 more than 100 nM or not available is marked as D.

The target in assay [2] is T1, TYK2. The experiment in a line: TYK2 degradation MSD assay in human PBMC cells. Also noted: endogenous in cells; host or cells: human PBMC. Particulars: 4 to 24 hours incubation, read-out: TYK2 MSD DC50 rating in human PBMC. As for the experimental part:
as §1, §2

For assay [3], the target named is T1, TYK2. Put plainly: TYK2 degradation MSD assay in EBV-B cells. Also noted: endogenous in cells; host or cells: EBV-B cells. Particulars: 4 to 24 hours incubation, read-out: TYK2 MSD DC50 rating in EBV-B. The procedure:
as §1, §2

On to `CNc1cc(-c2ccc(N3CCC(CN4CC5(CCN(c6cccc7c6n(C)c(=O)n7C6CCC(=O)NC6=O)CC5)C4)CC3)cc2)nn2c(C(=O)N[C@@H]3C[C@@H]3F)cnc12` (mixture of isomers) [Example K533], for which the DC50 on TYK2 [1], on TYK2 [2] and on TYK2 [3] was over 100 nM throughout.

`CNc1cc(N2CCc3c(C4CCN(CC5CCN(C(=O)c6ccc(Cl)c(N7CCC(=O)NC7=O)c6)CC5)CC4)cccc32)nn2c(C(=O)N[C@@H]3C[C@@H]3F)cnc12` (racemic) [Example K535]: the DC50 on TYK2 [1], at TYK2 [2] and at TYK2 [3] was over 100 nM in each case.

As for `CNc1cc(N2CCc3c(C4CCN(CC5CCN(c6ccc(-c7ccc8c(c7)n(C)c(=O)n8C7CCC(=O)NC7=O)cc6)CC5)CC4)cccc32)nn2c(C(=O)N[C@@H]3C[C@@H]3F)cnc12` (mixture of isomers) [Example K536], the values for the DC50 at TYK2 [1], on TYK2 [2] and on TYK2 [3] were under 1 nM, over 100 nM and over 100 nM, respectively.

Turning to `CNc1cc(Nc2cccc(C3CCN(CC4CCN(c5ccc(-c6cccc7c6n(C)c(=O)n7C6CCC(=O)NC6=O)cc5)CC4)CC3)c2OC)nn2c(C(=O)N[C@@H]3C[C@@H]3F)cnc12` (mixture of isomers) [Example K538], the DC50 at TYK2 [1], on TYK2 [2] and at TYK2 [3] was over 100 nM each time.

As to `COc1c(Nc2cc(C(F)F)c3ncc(C(=O)N[C@@H]4C[C@@H]4F)n3n2)cccc1-c1ccc(CN2CCN(c3ccc(-c4ccc5c(c4)n(C)c(=O)n5C4CCC(=O)NC4=O)cc3)CC2)cn1` (mixture of isomers) [Example K539], the DC50 on TYK2 [1], on TYK2 [2] and at TYK2 [3] was over 100 nM each time.

Regarding `CNc1cc(-c2cn(C)c3c(C4CCN(CC5CCN(c6ccc(-c7ccc8c(c7)n(C)c(=O)n8C7CCC(=O)NC7=O)cc6)CC5)CC4)cccc23)nn2c(C(=O)N[C@@H]3C[C@@H]3F)cnc12` (mixture of isomers) [Example K540], the figures for the 50% degradation concentration (DC50) at TYK2 [1], on TYK2 [2] and on TYK2 [3] were 1 to 10 nM, over 100 nM and over 100 nM, respectively.

With `CNc1cc(Nc2cccc(-c3ccc(CN4CCN(c5ccc(-c6ccc7c(c6)n(C)c(=O)n7C6CCC(=O)NC6=O)cc5)CC4)cn3)c2Cl)nn2c(C(=O)N[C@@H]3C[C@@H]3F)cnc12` (mixture of isomers) [Example K541], the DC50 is under 1 nM on TYK2 [1], over 100 nM on TYK2 [2] and over 100 nM at TYK2 [3].

In the case of `CNc1cc(Nc2cccc(C#CCN3CCN(c4ccc(-c5ccc6c(c5)n(C)c(=O)n6C5CCC(=O)NC5=O)cc4)CC3)c2OC)nn2c(C(=O)N[C@@H]3C[C@@H]3F)cnc12` (mixture of isomers) [Example K543, 6-({3-[3-(4-{4-[1-(2,6-Dioxopiperidin-3-yl)-3-methyl-2-oxo-1,3-benzodiazol-5-yl]phenyl}piperazin-1-yl)prop-1-yn-1-yl]-2-methoxyphenyl}amino)-N-[(1R,2S)-2-fluorocyclopropyl]-8-(methylamino)imidazo[1,2-b]pyridazine-3-carboxamide], the DC50 was under 1 nM on TYK2 [1], over 100 nM at TYK2 [2] and over 100 nM at TYK2 [3].

As for `CNc1cc(N2CCc3c(-c4ccc(CN5CCC6(CC5)CCN(c5ccc7c(c5)n(C)c(=O)n7C5CCC(=O)NC5=O)CC6)cn4)cccc32)nn2c(C(=O)N[C@@H]3C[C@@H]3F)cnc12` (mixture of isomers) [Example K544], the values for the DC50 at TYK2 [1], on TYK2 [2] and on TYK2 [3] were under 1 nM, over 100 nM and over 100 nM, respectively.

`CNc1cc(-c2ccc(N3CCC(CN4CCN(c5ccc(-c6ccc7c(c6)n(C)c(=O)n7C6CCC(=O)NC6=O)cc5)CC4)CC3)cc2)nn2c(C(=O)N[C@@H]3C[C@@H]3F)cnc12` (mixture of isomers) [Example K545]: the DC50 at TYK2 [1], at TYK2 [2] and on TYK2 [3] was over 100 nM in each case.

As to `CNc1cc(N2CCc3c(-c4ccc(CN5CCN(c6ccc(-c7cccc8c(N9CCC(=O)NC9=O)cncc78)cc6)CC5)cn4)cccc32)nn2c(C(=O)N[C@@H]3C[C@@H]3F)cnc12` (racemic) [Example K546], the DC50 at TYK2 [1], on TYK2 [2] and at TYK2 [3] was over 100 nM each time.

On to `CNc1cc(Oc2cnn(C3CCN(CC4CCN(c5ccc(-c6ccc7c(c6)n(C)c(=O)n7C6CCC(=O)NC6=O)cc5)CC4)CC3)c2)nn2c(C(=O)N[C@@H]3C[C@@H]3F)cnc12` (mixture of isomers) [Example K547], for which the DC50 on TYK2 [1], on TYK2 [2] and on TYK2 [3] was over 100 nM each time.

Take `CNc1cc(Nc2cnn(CC3CCN(CC4CCN(c5ccc6c(c5)n(C)c(=O)n6C5CCC(=O)NC5=O)CC4)CC3)c2)nn2c(C(=O)N[C@@H]3C[C@@H]3F)cnc12` (mixture of isomers) [Example K548]: the DC50 on TYK2 [1], on TYK2 [2] and at TYK2 [3] was over 100 nM in each case.

As to `CNc1cc(Nc2cccc(-c3ccc(CN4CCN([C@H]5CC[C@@H](c6ccc7c(c6)n(C)c(=O)n7C6CCC(=O)NC6=O)CC5)CC4)cn3)c2OC)nn2c(C(=O)N[C@@H]3C[C@@H]3F)cnc12` (mixture of isomers) [Example K552], the figures for the DC50 on TYK2 [1], at TYK2 [2] and at TYK2 [3] were under 1 nM, over 100 nM and under 1 nM, respectively.

In the case of `CNc1cc(Nc2cccc(-c3ccc(CN4CCN([C@H]5CC[C@H](c6ccc7c(c6)n(C)c(=O)n7C6CCC(=O)NC6=O)CC5)CC4)cn3)c2OC)nn2c(C(=O)N[C@@H]3C[C@@H]3F)cnc12` (mixture of isomers) [Example K553], the DC50 was under 1 nM on TYK2 [1], over 100 nM at TYK2 [2] and under 1 nM on TYK2 [3].

As to `CNc1cc(N2CCc3c(CN4CCN(c5ccc(-c6ccc7c(c6)n(C)c(=O)n7C6CCC(=O)NC6=O)cc5)CC4)cccc32)nn2c(C(=O)N[C@@H]3C[C@@H]3F)cnc12` (mixture of isomers) [Example K575], the DC50 was 1 to 10 nM on TYK2 [1], over 100 nM at TYK2 [2] and over 100 nM at TYK2 [3].

As to `CNC(=O)c1cnc(NC(=O)CCCCCCCc2ccc3c(c2)n(C)c(=O)n3C2CCC(=O)NC2=O)cc1Nc1cccc(-c2ncc(F)cn2)c1OC` (centres unmarked) [Example K104], the DC50 at TYK2 [1], at TYK2 [2] and on TYK2 [3] was over 100 nM in each case.

Regarding `CNC(=O)c1cnc(NC(=O)NCCCCc2cccc3c2n(C)c(=O)n3C2CCC(=O)NC2=O)cc1Nc1cccc(-c2ncc(F)cn2)c1OC` (centres unmarked) [Example K105], the DC50 on TYK2 [1], at TYK2 [2] and on TYK2 [3] was over 100 nM throughout.

On to `CNC(=O)c1cnc(NC(=O)NCCCCCCc2cccc3c2n(C)c(=O)n3C2CCC(=O)NC2=O)cc1Nc1cccc(-c2ncc(F)cn2)c1OC` (centres unmarked) [Example K106], for which the DC50 at TYK2 [1], on TYK2 [2] and at TYK2 [3] was over 100 nM each time.

`CNC(=O)c1cnc(Nc2ccc(C(=O)NCCCCc3ccc4c(c3)n(C)c(=O)n4C3CCC(=O)NC3=O)cn2)cc1Nc1cccc(-c2ncc(F)cn2)c1OC` (centres unmarked) [Example K107]: the DC50 on TYK2 [1] is over 100 nM; on TYK2 [2], under 1 nM; on TYK2 [3] it was over 100 nM.

As to `CNC(=O)c1cnc(Nc2ccc(C(=O)NCCCCCCc3ccc4c(c3)n(C)c(=O)n4C3CCC(=O)NC3=O)cn2)cc1Nc1cccc(-c2ncc(F)cn2)c1OC` (centres unmarked) [Example K110], the DC50 at TYK2 [1] is over 100 nM; at TYK2 [2] it was under 1 nM; on TYK2 [3] it was over 100 nM.

`CNc1cc(Nc2cccn(-c3cc(C(=O)NCCOCCOCCOCCOCCOCCOCCc4cccc5c4n(C)c(=O)n5C4CCC(=O)NC4=O)ccn3)c2=O)nn2c(C(=O)N[C@@H]3C[C@@H]3F)cnc12` (some centres unmarked) [Example K246]: the DC50 at TYK2 [3] was over 100 nM.

Consider `CNc1cc(Nc2cccc(C(=O)NCCCCc3ccc4c(c3)n(C)c(=O)n4C3CCC(=O)NC3=O)c2)nn2c(C(=O)N[C@@H]3C[C@@H]3F)cnc12` (some centres unmarked) [Example K368], for which the DC50 on TYK2 [3] is over 100 nM.

For `CNc1cc(Nc2cccn(-c3ccc(C(=O)N4CCC(CN5CCC(c6ccc7c(c6)n(C)c(=O)n7C6CCC(=O)NC6=O)CC5)CC4)cn3)c2=O)nn2c(C(=O)N[C@@H]3C[C@@H]3F)cnc12` (some centres unmarked) [Example K411], the figures for the DC50 at TYK2 [1] and at TYK2 [3] were under 1 nM and over 100 nM, respectively.

For `CNc1cc(Nc2cccc(-c3ccc(CN4CCN(c5ccc(-c6ccc7c(c6)n(C)c(=O)n7C6CCC(=O)NC6=O)cc5)CC4)cn3)c2)nn2c(C(=O)N[C@@H]3C[C@@H]3F)cnc12` (some centres unmarked) [Example K511], the DC50 on TYK2 [3] was over 100 nM.

As usually defined, the DC50 is the midpoint of the concentration-degradation curve.
